Measured values from PubChem BioAssay AID2060897 (Molecular Pharmacology Branch, DTP, NCI, 2025).

Test system: 966289-007-R4-J1-PDC complex spheroid viability
Assay: Anticancer human tumor 966289-007-R4-J1-PDC patient-derived pancreatic adenocarcinoma cell line growth inhibition [RAS]
Settings: for IC50: curve of first compound; for viability, T/C: stronger effect = lower value; active = viability on the fitted dose curve at most 10% of control; inactive = the rest
Summary of the method: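 Agents were tested in combination matrices in half-log decrements from a top concentration at or near clinical Cmax (10 microM if undetermined). Targets were multi-cell spheroids of tumour lines plus HUVEC and MSC stromal cells.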

[1] = second compound 0.000949 µM, first compound 0.0316 µM
[2] = second compound 0.000949 µM, first compound 0.1 µM
[3] = second compound 0.000949 µM, first compound 0.316 µM
[4] = second compound 0.000949 µM, first compound 1 µM
[5] = second compound 0.000949 µM, first compound 3.16 µM
[6] = second compound 0.000949 µM, first compound 10 µM
[7] = second compound 0.003 µM, first compound 0.0316 µM
[8] = second compound 0.003 µM, first compound 0.1 µM
[9] = second compound 0.003 µM, first compound 0.316 µM
[10] = second compound 0.003 µM, first compound 1 µM
[11] = second compound 0.003 µM, first compound 3.16 µM
[12] = second compound 0.003 µM, first compound 10 µM
[13] = second compound 0.00949 µM, first compound 0.0316 µM
[14] = second compound 0.00949 µM, first compound 0.1 µM
[15] = second compound 0.00949 µM, first compound 0.316 µM
[16] = second compound 0.00949 µM, first compound 1 µM
[17] = second compound 0.00949 µM, first compound 3.16 µM
[18] = second compound 0.00949 µM, first compound 10 µM
[19] = second compound 0.03 µM, first compound 0.0316 µM
[20] = second compound 0.03 µM, first compound 0.1 µM
[21] = second compound 0.03 µM, first compound 0.316 µM
[22] = second compound 0.03 µM, first compound 1 µM
[23] = second compound 0.03 µM, first compound 3.16 µM
[24] = second compound 0.03 µM, first compound 10 µM
[25] = second compound 0.0949 µM, first compound 0.0316 µM
[26] = second compound 0.0949 µM, first compound 0.1 µM
[27] = second compound 0.0949 µM, first compound 0.316 µM
[28] = second compound 0.0949 µM, first compound 1 µM
[29] = second compound 0.0949 µM, first compound 3.16 µM
[30] = second compound 0.0949 µM, first compound 10 µM
[31] = second compound 0.3 µM, first compound 0.0316 µM
[32] = second compound 0.3 µM, first compound 0.1 µM
[33] = second compound 0.3 µM, first compound 0.316 µM
[34] = second compound 0.3 µM, first compound 1 µM
[35] = second compound 0.3 µM, first compound 3.16 µM
[36] = second compound 0.3 µM, first compound 10 µM
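Note: spheroids exposed to agents for one week before readout.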
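Throughout, for viability, T/C: percent viability relative to DMSO vehicle control wells as 100%.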

CC1(O)CCCC1n1c(=O)c(C(F)F)cc2cnc(NC3CCN(S(C)(=O)=O)CC3)nc21 (centres undefined) + CCn1c(-c2cccnc2C(C)OC)c2c3cc(ccc31)N1CCOC(CC(NC(=O)C(C(C)C)N(C)C(=O)C3(F)CCN(C(=O)C#CC(C)(C)N(C)C)CC3)C(=O)N3CCCC(N3)C(=O)OCC(C)(C)C2)C1
126 nM: IC50 (second compound 0.000949 µM)
155 nM: IC50 (second compound 0.003 µM) | IC50 (second compound 0.00949 µM)
107 nM: IC50 (second compound 0.3 µM)
81.7 nM: IC50 (second compound 0.03 µM)
106 nM: IC50 (second compound 0.0949 µM)
inactive: viability, T/C [1] 102% | viability, T/C [2] 57.9% | viability, T/C [3] 21.9% | viability, T/C [4] 24.9% | viability, T/C [5] 20.7% | viability, T/C [6] 3.78% | viability, T/C [7] 115% | viability, T/C [8] 67.3% | viability, T/C [9] 21.2% | viability, T/C [10] 22.8% | viability, T/C [11] 23.8% | viability, T/C [12] 4.11% | viability, T/C [13] 83.1% | viability, T/C [14] 68.5% | viability, T/C [15] 19.7% | viability, T/C [16] 18.9% | viability, T/C [17] 23.4% | viability, T/C [18] 2.04% | viability, T/C [19] 91.6% | viability, T/C [20] 41.3% | viability, T/C [21] 18.8% | viability, T/C [22] 21.4% | viability, T/C [23] 24.4% | viability, T/C [24] 1.8% | viability, T/C [25] 99.3% | viability, T/C [26] 51.8% | viability, T/C [27] 16.9% | viability, T/C [28] 21.4% | viability, T/C [29] 26% | viability, T/C [30] 1.18% | viability, T/C [31] 64.1% | viability, T/C [32] 52.2% | viability, T/C [33] 16% | viability, T/C [34] 23.2% | viability, T/C [35] 24.1% | viability, T/C [36] 1.49%

CCC(CC)c1cc(NC2CCC(N)C2)n2nccc2n1 (centres undefined) + CCn1c(-c2cccnc2C(C)OC)c2c3cc(ccc31)N1CCOC(CC(NC(=O)C(C(C)C)N(C)C(=O)C3(F)CCN(C(=O)C#CC(C)(C)N(C)C)CC3)C(=O)N3CCCC(N3)C(=O)OCC(C)(C)C2)C1
1500 nM: IC50 (second compound 0.000949 µM)
active: viability, T/C [5] 1.1% | viability, T/C [6] 1.22% | viability, T/C [11] 1.2% | viability, T/C [12] 0.93% | viability, T/C [17] 1.25% | viability, T/C [18] 1.32% | viability, T/C [23] 1.48% | viability, T/C [24] 1.83% | viability, T/C [29] 0.98% | viability, T/C [30] 0.98% | viability, T/C [35] 1.23% | viability, T/C [36] 1.13%
1480 nM: IC50 (second compound 0.00949 µM)
764 nM: IC50 (second compound 0.0949 µM)
inactive: viability, T/C [1] 113% | viability, T/C [2] 87% | viability, T/C [3] 115% | viability, T/C [4] 76.3% | viability, T/C [7] 99.7% | viability, T/C [8] 82.4% | viability, T/C [9] 66.7% | viability, T/C [10] 71.3% | viability, T/C [13] 82.1% | viability, T/C [14] 122% | viability, T/C [15] 96.5% | viability, T/C [16] 75.1% | viability, T/C [19] 66.9% | viability, T/C [20] 72.1% | viability, T/C [21] 123% | viability, T/C [22] 52.9% | viability, T/C [25] 64% | viability, T/C [26] 106% | viability, T/C [27] 132% | viability, T/C [28] 34.6% | viability, T/C [31] 93.5% | viability, T/C [32] 94.5% | viability, T/C [33] 98.5% | viability, T/C [34] 12.7%
1420 nM: IC50 (second compound 0.003 µM)
595 nM: IC50 (second compound 0.3 µM)
1070 nM: IC50 (second compound 0.03 µM)
